# Read-outs that look alike come from different tables or passages of the source.
# Assay: Single dose pharmacokinetic study in mice (iv 4 mg/Kg, po 20 mg/Kg), plasma concentration post-dosing
# Type: in vivo, mouse
# Settings: male, C57BL/6, mouse, plasma, mouse; for concentration at 5 min: 5 min post dosing; for concentration at 0.25 h: 0.250 h post dosing; for concentration at 0.5 h: 0.500 h post dosing; for concentration at 1 h: 1.00 h post dosing; for concentration at 2 h: 2.00 h post dosing; for concentration at 4 h: 4.00 h post dosing; for concentration at 8 h: 8.00 h post dosing; for concentration at 24 h: 24.0 h post dosing
# Description: This is advantageous leading to comparatively lower doses or less frequent administration. The procedure followed was: Male C57BL/6 mice were used at 7-9 weeks age with 3 animals per group. Mice were dosed with test compound using single intravenous bolus or oral gavage. Blood samples were taken via submandibular or saphenous vein for analysis of plasma concentrations of compound by LC-MS/MS at the following timepoints: IV (3 mice): 0.083, 0.25, 0.5, 1, 2, 4, 8 and 24 hours post dosing, PO (3 mice): 0.25, 0.5, 1, 2, 4, 8 and 24 hours post dosing. LC-MS/MS method for the quantitative determination of test compound in corresponding biological matrix was developed. […] The results are shown graphically in FIGS. 1A to 1C (MCC950) and FIGS. 2A to 2C (MCC7840).
smiles,measurement,setting,value
"CC(C)(O)c1coc(S(=O)(=O)NC(=O)Nc2c3c(cc4c2CCC4)CCC3)c1 [MCC_000950_016, N-((1,2,3,5,6,7-hexahydro-s-indacen-4-yl)carbamoyl)-4-(2-hydroxypropan-2-yl)furan-2-sulfonamide, reference compound]",concentration at 5 min,"iv, 4 mg/kg, IV 4 mg/Kg, individual mice M1-M3, read-out: Plasma concentration, IV Time 0.0833 h",20200 ng/mL
same,concentration at 5 min,"iv, 4 mg/kg, IV 4 mg/Kg, mean of 3 mice, read-out: Plasma concentration, IV Time 0.0833 h, Mean IV",18400 ng/mL
same,concentration at 0.25 h,"iv, 4 mg/kg, IV 4 mg/Kg, individual mice M1-M3, read-out: Plasma concentration, IV Time 0.250 h",16000 ng/mL
same,concentration at 0.25 h,"iv, 4 mg/kg, IV 4 mg/Kg, mean of 3 mice, read-out: Plasma concentration, IV Time 0.250 h, Mean IV",13000 ng/mL
same,concentration at 0.5 h,"iv, 4 mg/kg, IV 4 mg/Kg, individual mice M1-M3, read-out: Plasma concentration, IV Time 0.500 h",11700 ng/mL
same,concentration at 0.5 h,"iv, 4 mg/kg, IV 4 mg/Kg, mean of 3 mice, read-out: Plasma concentration, IV Time 0.500 h, Mean IV",10500 ng/mL
same,concentration at 1 h,"iv, 4 mg/kg, IV 4 mg/Kg, individual mice M1-M3, read-out: Plasma concentration, IV Time 1.00 h",9340 ng/mL
same,concentration at 1 h,"iv, 4 mg/kg, IV 4 mg/Kg, mean of 3 mice, read-out: Plasma concentration, IV Time 1.00 h, Mean IV",8430 ng/mL
same,concentration at 2 h,"iv, 4 mg/kg, IV 4 mg/Kg, individual mice M1-M3, read-out: Plasma concentration, IV Time 2.00 h",7410 ng/mL
same,concentration at 2 h,"iv, 4 mg/kg, IV 4 mg/Kg, mean of 3 mice, read-out: Plasma concentration, IV Time 2.00 h, Mean IV",6140 ng/mL
same,concentration at 4 h,"iv, 4 mg/kg, IV 4 mg/Kg, individual mice M1-M3, read-out: Plasma concentration, IV Time 4.00 h",3280 ng/mL
same,concentration at 4 h,"iv, 4 mg/kg, IV 4 mg/Kg, mean of 3 mice, read-out: Plasma concentration, IV Time 4.00 h, Mean IV",2600 ng/mL
same,concentration at 8 h,"iv, 4 mg/kg, IV 4 mg/Kg, individual mice M1-M3, read-out: Plasma concentration, IV Time 8.00 h",905 ng/mL
same,concentration at 8 h,"iv, 4 mg/kg, IV 4 mg/Kg, mean of 3 mice, read-out: Plasma concentration, IV Time 8.00 h, Mean IV",743 ng/mL
same,concentration at 24 h,"iv, 4 mg/kg, IV 4 mg/Kg, individual mice M1-M3, read-out: Plasma concentration, IV Time 24.0 h",3.29 ng/mL
same,concentration at 24 h,"iv, 4 mg/kg, IV 4 mg/Kg, mean of 3 mice, read-out: Plasma concentration, IV Time 24.0 h, Mean IV",2.65 ng/mL
same,AUC0-inf,"iv, 4 mg/kg, IV 4 mg/Kg, individual mice M1-M3, read-out: AUC0-inf",41900 ng·h/mL
same,AUC(0-t),"iv, 4 mg/kg, IV 4 mg/Kg, individual mice M1-M3, read-out: AUC0-last",41900 ng·h/mL
same,C0,"iv, 4 mg/kg, IV 4 mg/Kg, individual mice M1-M3, read-out: C0",22700 ng/mL
same,clearance,"iv, 4 mg/kg, IV 4 mg/Kg, individual mice M1-M3, read-out: Cl",1.59 mL/min/kg
same,MRT inf,"iv, 4 mg/kg, IV 4 mg/Kg, individual mice M1-M3, read-out: MRT0-inf",2.78 h
same,MRT last,"iv, 4 mg/kg, IV 4 mg/Kg, individual mice M1-M3, read-out: MRT0-last",2.77 h
same,half-life,"iv, 4 mg/kg, IV 4 mg/Kg, individual mice M1-M3, read-out: T1/2 (converted)",2 h
same,Vd,"iv, 4 mg/kg, IV 4 mg/Kg, individual mice M1-M3, read-out: Vdss",0.265 L/kg
same,AUC0-inf,"iv, 4 mg/kg, IV 4 mg/Kg, mean of 3 mice, read-out: AUC0-inf, Mean IV",35400 ng·h/mL
same,AUC(0-t),"iv, 4 mg/kg, IV 4 mg/Kg, mean of 3 mice, read-out: AUC0-last, Mean IV",35400 ng·h/mL
same,clearance,"iv, 4 mg/kg, IV 4 mg/Kg, mean of 3 mice, read-out: Cl, Mean IV",1.92 mL/min/kg
same,MRT inf,"iv, 4 mg/kg, IV 4 mg/Kg, mean of 3 mice, read-out: MRT0-inf, Mean IV",2.67 h
same,MRT last,"iv, 4 mg/kg, IV 4 mg/Kg, mean of 3 mice, read-out: MRT0-last, Mean IV",2.67 h
same,half-life,"iv, 4 mg/kg, IV 4 mg/Kg, mean of 3 mice, read-out: T1/2, Mean IV (converted)",2 h
same,Vd,"iv, 4 mg/kg, IV 4 mg/Kg, mean of 3 mice, read-out: Vdss, Mean IV",0.306 L/kg
same,concentration at 0.25 h,"po, 20 mg/kg, PO 20 mg/Kg, mean of 3 mice, read-out: Plasma concentration, PO Time 0.250 h, Mean PO",33300 ng/mL
same,concentration at 0.5 h,"po, 20 mg/kg, PO 20 mg/Kg, individual mice M4-M6, read-out: Plasma concentration, PO Time 0.500 h",20400 ng/mL
same,concentration at 0.5 h,"po, 20 mg/kg, PO 20 mg/Kg, mean of 3 mice, read-out: Plasma concentration, PO Time 0.500 h, Mean PO",30100 ng/mL
same,concentration at 1 h,"po, 20 mg/kg, PO 20 mg/Kg, individual mice M4-M6, read-out: Plasma concentration, PO Time 1.00 h",19300 ng/mL
same,concentration at 1 h,"po, 20 mg/kg, PO 20 mg/Kg, mean of 3 mice, read-out: Plasma concentration, PO Time 1.00 h, Mean PO",30000 ng/mL
same,concentration at 2 h,"po, 20 mg/kg, PO 20 mg/Kg, individual mice M4-M6, read-out: Plasma concentration, PO Time 2.00 h",18500 ng/mL
same,concentration at 2 h,"po, 20 mg/kg, PO 20 mg/Kg, mean of 3 mice, read-out: Plasma concentration, PO Time 2.00 h, Mean PO",22400 ng/mL
same,concentration at 4 h,"po, 20 mg/kg, PO 20 mg/Kg, individual mice M4-M6, read-out: Plasma concentration, PO Time 4.00 h",10200 ng/mL
same,concentration at 4 h,"po, 20 mg/kg, PO 20 mg/Kg, mean of 3 mice, read-out: Plasma concentration, PO Time 4.00 h, Mean PO",11200 ng/mL
same,concentration at 8 h,"po, 20 mg/kg, PO 20 mg/Kg, individual mice M4-M6, read-out: Plasma concentration, PO Time 8.00 h",4330 ng/mL
same,concentration at 8 h,"po, 20 mg/kg, PO 20 mg/Kg, mean of 3 mice, read-out: Plasma concentration, PO Time 8.00 h, Mean PO",3790 ng/mL
same,concentration at 24 h,"po, 20 mg/kg, PO 20 mg/Kg, mean of 3 mice, read-out: Plasma concentration, PO Time 24.0 h, Mean PO",39.1 ng/mL
same,AUC0-inf,"po, 20 mg/kg, PO 20 mg/Kg, individual mice M4-M6, read-out: AUC0-inf",108000 ng·h/mL
same,AUC(0-t),"po, 20 mg/kg, PO 20 mg/Kg, individual mice M4-M6, read-out: AUC0-last",108000 ng·h/mL
same,MRT inf,"po, 20 mg/kg, PO 20 mg/Kg, individual mice M4-M6, read-out: MRT0-inf",4.31 h
same,MRT last,"po, 20 mg/kg, PO 20 mg/Kg, individual mice M4-M6, read-out: MRT0-last",4.26 h
same,half-life,"po, 20 mg/kg, PO 20 mg/Kg, individual mice M4-M6, read-out: T1/2 (converted)",2.67 h
same,Tmax,"po, 20 mg/kg, PO 20 mg/Kg, individual mice M4-M6, read-out: Tmax",0.25 h

# Reference: patent US10538487B2, “Sulfonylureas and related compounds and use of same” (priority 2015, dated 2020)
